Experimental data as given in patent US20210188775A1, “CARBOXAMIDE AND SULFONAMIDE DERIVATIVES USEFUL AS TEAD MODULATORS” (Genentech, Inc., priority 2018, published 2021).

Experiments:
TEAD2 = TEAD2 (Homo sapiens, UniProt Q15562); assay: TEAD lipid assay (Lipid FP, Bodipy-C16 probe displacement); type: binding; conditions: fluorescence polarization, His-tagged TEAD, 60 minutes incubation
Experimental: (§1) A TEAD lipid assay was done according to the following method. His-tagged TEAD proteins were pre-incubated with a Bodipy-C16 FP probe (Life Technologies Cat #D3821) for 30 minutes at room temperature to pre-form TEAD-probe complex. […] Duplicate 10 point dose response curves were generated for each test compound. The potency of compounds as TEAD lipid pocket binders was determined by IC50 value generated using a non-linear 4 parameter curve fit.

TEAD3 = TEAD3 (Homo sapiens, UniProt Q99594); assay: as above; type: binding; conditions: fluorescence polarization, His-tagged TEAD, 60 minutes incubation
Sequence of TEAD3 (Q99594 whole entry, species assumed): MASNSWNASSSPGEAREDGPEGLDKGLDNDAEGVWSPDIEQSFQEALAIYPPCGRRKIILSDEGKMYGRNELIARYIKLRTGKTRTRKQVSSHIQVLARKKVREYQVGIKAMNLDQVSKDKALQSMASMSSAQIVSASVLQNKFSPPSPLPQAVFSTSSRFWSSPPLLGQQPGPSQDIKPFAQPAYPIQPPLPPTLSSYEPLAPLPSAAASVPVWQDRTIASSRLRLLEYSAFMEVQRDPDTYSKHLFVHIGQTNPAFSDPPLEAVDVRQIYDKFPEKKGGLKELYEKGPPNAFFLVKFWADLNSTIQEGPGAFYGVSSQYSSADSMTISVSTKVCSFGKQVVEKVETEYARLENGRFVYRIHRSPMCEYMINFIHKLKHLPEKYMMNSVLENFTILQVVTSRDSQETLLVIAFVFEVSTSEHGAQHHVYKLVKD
Experimental: as §1

Sequence of TEAD2 (Q15562 whole entry, species assumed): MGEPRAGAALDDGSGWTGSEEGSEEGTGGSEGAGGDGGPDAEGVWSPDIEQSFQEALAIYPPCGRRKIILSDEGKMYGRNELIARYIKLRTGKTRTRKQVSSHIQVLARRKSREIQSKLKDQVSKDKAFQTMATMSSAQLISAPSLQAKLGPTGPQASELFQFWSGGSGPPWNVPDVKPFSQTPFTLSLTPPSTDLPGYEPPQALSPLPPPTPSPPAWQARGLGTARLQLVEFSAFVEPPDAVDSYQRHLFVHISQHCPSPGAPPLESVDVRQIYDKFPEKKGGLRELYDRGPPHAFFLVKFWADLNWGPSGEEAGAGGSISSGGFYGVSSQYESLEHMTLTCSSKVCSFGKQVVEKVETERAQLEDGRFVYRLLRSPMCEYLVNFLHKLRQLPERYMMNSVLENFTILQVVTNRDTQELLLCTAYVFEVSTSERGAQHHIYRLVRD

SMILES | IC50 (TEAD2) | IC50 (TEAD3)
COc1ccc(NS(C)(=O)=O)cc1/C=C/C1CCC(C)CC1 (single isomer, unassigned) [Compound 6A, (E)-N-(4-Methoxy-3-(2-(4-methylcyclohexyl)vinyl)phenyl) methanesulfonamide] | 960 nM | 1700 nM
C=CS(=O)(=O)Nc1ccc(OC)c(/C=C/c2ccc(Cl)cc2)c1 [Compound 34, N-[3-[(E)-2-(4-chlorophenyl)vinyl]-4-methoxy-phenyl]ethenesulfonamide] | 960 nM | 1200 nM
Cn1cc(Cc2ccc(Cl)cc2)c2cc(NS(C)(=O)=O)ccc21 [Compound 24, N-[3-[(4-chlorophenyl)methyl]-1-methyl-indol-5-yl]methanesulfonamide] | 360 nM | 780 nM
COc1cc(F)c(NS(=O)(=O)C2CC2)cc1-c1ccc(C(C)C)cc1 [Compound 11, N-[2-fluoro-5-(4-isopropylphenyl)-4-methoxy-phenyl]cyclopropanesulfonamide] | 560 nM | 630 nM
COc1ccc(NS(C)(=O)=O)cc1[C@H]1C[C@H](c2ccc(Cl)cc2)C1 (single isomer, unassigned) [Compound 7A] | 910 nM | 1700 nM
COc1ccc(NS(C)(=O)=O)cc1/C=C/C1CCC(F)(F)CC1 [Compound 2, N-[3-[(E)-2-(4,4-difluorocyclohexyl)vinyl]-4-methoxy-phenyl]methanesulfonamide] | 1000 nM | 1500 nM
COc1ccc(C(=O)NC(C)C)cc1-c1ccc(C2CC2)cc1 [Compound 26, 3-(4-cyclopropylphenyl)-N-isopropyl-4-methoxy-benzamide] | 2000 nM | 1700 nM
COc1ccc(NS(=O)(=O)C2CC2)cc1-c1ccc(C(C)C)cc1 [Compound 25, N-[3-(4-isopropylphenyl)-4-methoxy-phenyl]cyclopropanesulfonamide] | 380 nM | 1200 nM
COc1ccc(C(=O)NC(C)C)cc1/C=C/C1CCCCC1 [Compound 29] | 1000 nM | 1100 nM
CS(=O)(=O)Nc1cnc(C2CC2)c(/C=C/C2CCC(F)(F)CC2)c1 [Compound 52, N-[6-cyclopropyl-5-[(E)-2-(4,4-difluorocyclohexyl)vinyl]-3-pyridyl]methanesulfonamide] | 1600 nM | 13000 nM
COc1ncc(NS(C)(=O)=O)cc1/C=C/[C@H]1CC[C@H](C(F)(F)F)CC1 [Compound 16, N-[6-methoxy-5-[(E)-2-[4-(trifluoromethyl)cyclohexyl]vinyl]-3-pyridyl]methanesulfonamide] | 690 nM | 1200 nM
CC[C@H](CO)NC(=O)c1cc(/C=C/[C@H]2CC[C@H](C(F)(F)F)CC2)c(OC)cn1 [Compound 42, (E)-N-(1-hydroxybutan-2-yl)-5-methoxy-4-(2-(4-(trifluoromethyl)cyclohexyl)vinyl) picolinamide] | 530 nM | 780 nM
Cc1cn(Cc2ccc(Cl)cc2)c2cc(NS(=O)(=O)C3CC3)ccc12 [Compound 23, N-[1-[(4-chlorophenyl)methyl]-3-methyl-indol-6-yl]cyclopropanesulfonamide] | 1200 nM | 830 nM
COc1nc(F)c(NS(C)(=O)=O)cc1/C=C/CC1CCCC1 [Compound 40, N-[5-[(E)-3-cyclopentylprop-1-enyl]-2-fluoro-6-methoxy-3-pyridyl]methanesulfonamide] | 640 nM | 650 nM
COc1ccc(C(N)=O)cc1/C=C/C1CCCCC1 [Compound 31, 3-[(E)-2-cyclohexylvinyl]-4-methoxy-benzamide] | 780 nM | 970 nM
COc1nc(F)c(NS(C)(=O)=O)cc1/C=C/C1CCC(F)(F)CC1 [Compound 39, N-[5-[(E)-2-(4,4-difluorocyclohexyl)vinyl]-2-fluoro-6-methoxy-3-pyridyl]methanesulfonamide] | 550 nM | 970 nM
COc1ncc(NS(C)(=O)=O)cc1/C=C/CC(C)C [Compound 15, N-[6-methoxy-5-[(E)-4-methylpent-1-enyl]-3-pyridyl]methanesulfonamide] | 1200 nM | 2000 nM
COc1ccc(NS(=O)(=O)C2CC2)cc1/C=C/c1ccc(Cl)cc1 [Compound 49, N-[3-[(E)-2-(4-chlorophenyl)vinyl]-4-methoxy-phenyl]cyclopropanesulfonamide] | 750 nM | 1900 nM
COc1ncc(NS(C)(=O)=O)cc1/C=C/C1CC(C)(C)C1 [Compound 36, N-[5-[(E)-2-(3,3-dimethylcyclobutyl)vinyl]-6-methoxy-3-pyridyl]methanesulfonamide] | 950 nM | 1400 nM
CC[C@H](CO)NC(=O)c1cc(/C=C/C2CC3(CC3)C2)c(OC)cn1 [Compound 44, (E)-N-(1-hydroxybutan-2-yl)-5-methoxy-4-(2-(spiro[2.3]hexan-5-yl)vinyl)picolinamide] | 830 nM | 700 nM
COc1nc(F)c(NS(C)(=O)=O)cc1/C=C/C1CCCCC1 [Compound 38, N-[5-[(E)-2-cyclohexylvinyl]-2-fluoro-6-methoxy-3-pyridyl]methanesulfonamide] | 1100 nM | 2000 nM
COc1ccc(NS(=O)(=O)C2CC2)cc1/C=C/Cc1ccccc1 [Compound 33, N-[4-methoxy-3-[(E)-3-phenylprop-1-enyl]phenyl]cyclopropanesulfonamide] | 840 nM | 1200 nM
COc1ccc(NS(C)(=O)=O)cc1[C@H]1C[C@H](c2cccc(F)c2)C1 (single isomer, unassigned) [Compound 8A] | 740 nM | 1400 nM
COc1ncc(NS(C)(=O)=O)cc1/C=C/C1CC2(CC2)C1 [Compound 17, N-[6-methoxy-5-[(E)-2-spiro[2.3]hexan-5-ylvinyl]-3-pyridyl]methanesulfonamide] | 810 nM | 1800 nM
COc1cnc(NS(C)(=O)=O)cc1/C=C/C1(F)CCC(F)(F)CC1 [Compound 20, N-[5-methoxy-4-[(E)-2-(1,4,4-trifluorocyclohexyl)vinyl]-2-pyridyl]methanesulfonamide] | 2000 nM | 760 nM
COc1cc(F)c(NS(C)(=O)=O)cc1-c1ccc(C(C)C)cc1 [Compound 12, N-[2-fluoro-5-(4-isopropylphenyl)-4-methoxy-phenyl]methanesulfonamide] | 590 nM | 860 nM
CC[C@H](CO)NC(=O)c1cc(/C=C/[C@H]2CC[C@H](C(F)(F)F)CC2)c(OC)nn1 [Compound 46, (E)-N-(1-hydroxybutan-2-yl)-6-methoxy-5-(2-(4-(trifluoromethyl)cyclohexyl)vinyl) pyridazine-3-carboxamide] | 1600 nM | 1600 nM
COc1ccc(NS(C)(=O)=O)cc1/C=C/C1CCCCC1 [Compound 27, N-[3-[(E)-2-cyclohexylvinyl]-4-methoxy-phenyl]methanesulfonamide] | 1000 nM | 1200 nM
COc1nnc(NS(C)(=O)=O)cc1/C=C/C1CCC(C(F)(F)F)CC1 (stereo not shown) [Compound 45, (E)-N-(6-methoxy-5-(2-(4-(trifluoromethyl)cyclohexyl)vinyl)pyridazin-3-yl)methanesulfonamide] | 1600 nM | 1700 nM
